Laboratory results as given in EP0034471A1, “Piperidinoquinazolines and a process for the preparation thereof” (ORION-YHTYMÄ OY, priority 1980, dated 1981).
Where a name gives a salt, the structure may show the parent alone.

Columns and labels:
[1] = test system: Spontaneously hypertensive rats of the Okamoto-Aoki strain; assay: Blood pressure lowering after oral administration in conscious spontaneously hypertensive rats (tail cuff, systolic pressure); type: in vivo; details: for The decrease of the blood pressure (mmHg) induced by the dose of 0.5 µmol/rat p.o. 1h: 1 hour after administration; for The decrease of the blood pressure (mmHg) induced by the dose of 0.5 µmol/rat p.o. 2h: 2 hours after administration; for The decrease of the blood pressure (mmHg) induced by the dose of 0.5 µmol/rat p.o. 5h: 5 hours after administration
[2] = test system: male Wistar rats; assay: Blood pressure lowering after intravenous administration in urethane-anaesthetised rats (mean arterial pressure, femoral artery); type: in vivo; details: maximal decrease of the blood pressure
Experimental: The effect of the compounds when administered intravenously was studied with male Wistar rats, 240-290 g,which were anaesthetised with urethane (1.5 g/kg intraperitoneally). A heating pad which is controlled by a thermostate connected to the colonic thermistor probe was placed underneath the rats to keep the body temperature at' 38°C. The trachea was cannulated with a polyethylene tube and the rats were allowed to breathe spontaneously. A femoral vein was cannulated for intravenous injections of drugs. […] The pressure . signals were amplified with a pressure conditioner (HP […]). The mean arterial pressure was recorded on paper with a . chart recorder. […] A dose of 0.1 μmol/kg was injected intravenously and the maximal decrease of the blood pressure (mmHg) was measured.

SMILES | The decrease of the blood pressure (mmHg) induced by the dose of 0.5 µmol/rat p.o. 1h [1] | The decrease of the blood pressure (mmHg) induced by the dose of 0.5 µmol/rat p.o. 2h [1] | The decrease of the blood pressure (mmHg) induced by the dose of 0.5 µmol/rat p.o. 5h [1] | The decrease of the blood pressure (mmHg) induced by the dose of 0.1 µmol/kg i.v. [2]
COc1cc2nc(N3CCC(C(N)=O)CC3)nc(N)c2cc1OC.Cl [amino, 2-(4-carbamoylpiperidino)-4-amino-6,7-dimethoxyquinazoline hydrochloride] | 20 mmHg | 22 mmHg | 20 mmHg | 27 mmHg
COc1cc2nc(N3CCC(C(=O)N4CCCCCCC4)CC3)nc(N)c2cc1OC [1-azacyclooctyl, 2-(4-(azacyclooct-1-yl-carbonyl)piperidino-4-amino-6,7-dimethoxyquinazoline hydrochloride] | 18 mmHg | 23 mmHg | 29 mmHg | 23 mmHg
COc1cc2nc(N3CCC(C(=O)N4CCCCC4)CC3)nc(N)c2cc1OC [piperidino, 2-(4-piperidinocarbonylpiperidino)-4-amino-6,7-dimethoxyquinazoline] | 25 mmHg | 22 mmHg | 17 mmHg | 32 mmHg
COc1cc2nc(N3CCN(C(=O)c4ccco4)CC3)nc(N)c2cc1OC [prazosin, 2-(4-(2-furoyl)-piperazin-l-yl)-4-amino-6,7-dimethoxyquinazoline, reference compound] | 26 mmHg | 31 mmHg | 24 mmHg | 36 mmHg
COc1cc2nc(N3CCC(C(=O)N4CCCCCC4)CC3)nc(N)c2cc1OC [1-azacycloheptyl, 2-(4-(azacyclohept-1-yl-carbonyl)piperi-dino)-4-amino-6,7-dimethoxyquinazoline hydrochloride] | 23 mmHg | 27 mmHg | 25 mmHg | 47 mmHg
COc1cc2nc(N3CCC(C(=O)NC(C)(C)C)CC3)nc(N)c2cc1OC.Cl [t-butylamino, 2-(4-tert-butylcarbamoylpiperidino)-4-amino-6,7-dimethoxyquinazoline hydrochloride] | 15 mmHg | 25 mmHg | 28 mmHg | 28 mmHg
COc1cc2nc(N3CCC(C(=O)N4CCCCC4C)CC3)nc(N)c2cc1OC.Cl (stereo not shown) [2-methylpiperidino, 2-(4-(2-methylpiperidino)carbonylpiperidino)-4-amino-6,7-dimethoxyquinazoline hydrochloride] | 15 mmHg | 25 mmHg | 28 mmHg | 31 mmHg
CCN(CC)C(=O)C1CCN(c2nc(N)c3cc(OC)c(OC)cc3n2)CC1 [A(R = diethylamino), 2-(4-diethylaminocarbonylpiperidino) 4- .amino-6,7-dimethoxyquinazoline, reference compound] | 24 mmHg | 16 mmHg | 10 mmHg | 37 mmHg
COc1cc2nc(N3CCC(C(=O)OCC(C)(C)C)CC3)nc(N)c2cc1OC.Cl [neopentyloxy, 2-(4-neopentyloxycarbonylpiperidino)-4-amino-6,7-dimethoxyquinazoline hydrochloride] | 22 mmHg | 21 mmHg | 21 mmHg | 44 mmHg
COc1cc2nc(N3CCC(C(=O)N4CCOCC4)CC3)nc(N)c2cc1OC [B(R = morpholino), 2-(4-morpholinocarbonylpiperidino)-4-amino-6,7-dimethoxyquinazoline, reference compound] | 7 mmHg | 5 mmHg | -2 mmHg | 30 mmHg
